Experimental data published in patent US20070060591A1, “Chemokine receptor binding heterocyclic compounds” (priority 1999, published 2007).
≈ marks a conversion by molar mass, not a printed value. Like-named read-outs stand apart in the source and are kept apart here. Blank lines part the entries; values can stand above or below the compound they belong to.

Tests used:
HIV-1 BaL = assay: Inhibition of infection of U87.CD4.CCR5 by HIV-1 BaL; assay type: cell-based; details: U87.CD4.CCR5 cells
MT-4 cells = assay: in vitro; assay type: cell-based
Procedure: (§1) The compounds of the invention were tested in a screen by the MTT method (J. Virol. Methods […] (1988)). MT-4 cells (2.5×10^4/well) were challenged with HIV-1 (HTLV-IIIB) or HIV-2 (LAV-2 ROD) at a concentration of 100 CCID50 and incubated in the presence of various concentrations of the test compounds, which were added immediately after challenge with the virus. After 5 days culture at 37° C. in a CO2 incubator, the number of viable cells was assessed by the MTT (tetrazolium) method. […] The potential therapeutic usefulness was assessed by calculating a Selectivity Index (SI) corresponding to the ratio of CC50 to EC50.

HIV-1 (HTLV-IIIB) = assay: microbe, parasite or virus in culture; assay type: cell-based; details: MT-4 cells
Procedure: as §1

HIV-2 (LAV-2 ROD) = assay: Anti-HIV-2 screen by the MTT method in MT-4 cells; assay type: cell-based; details: 100 CCID50, 5 days
Procedure: as §1

CXCR-4 [1] = target: T1, CXCR-4 (Homo sapiens, UniProt P61073); assay: Inhibition of mAb 12G5 binding to CXCR-4 in SUP-T1 cells
T1 construct: endogenous in cells; host or cells: SUP-T1 cells
T1 sequence (P61073 whole entry): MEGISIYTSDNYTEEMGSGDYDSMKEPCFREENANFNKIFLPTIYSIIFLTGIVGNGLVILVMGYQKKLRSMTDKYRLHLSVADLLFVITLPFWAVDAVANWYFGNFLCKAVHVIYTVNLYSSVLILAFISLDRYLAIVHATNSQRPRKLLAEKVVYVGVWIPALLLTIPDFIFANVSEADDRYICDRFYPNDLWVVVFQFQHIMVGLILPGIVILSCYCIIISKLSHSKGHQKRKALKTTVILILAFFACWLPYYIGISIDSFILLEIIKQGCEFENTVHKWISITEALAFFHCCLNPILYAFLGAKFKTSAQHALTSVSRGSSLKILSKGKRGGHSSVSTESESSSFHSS

CXCR-4 [2] = target: T1, CXCR-4; assay: Inhibition of signal transduction (Ca2+ flux) induced by SDF-1α binding to CXCR-4 on SUP-T1 cells; assay type: cell-based; details: SDF-1α induced; for inhibition at 1 µg/mL: 1 μg/ml, read-out: % Inhibition of Ca2+ flux (conc)
[3] = crosslinker bond, 14-membered ring, Cs2CO3, DMF
[4] = from CCOP(=O)(OCC)N(CCCCCCCNC(=O)CBr)CCNS(=O)(=O)c1ccccc1[N+](=O)[O-]; amine bond; K2CO3; acetonitrile; 0.6 mM; 60.0 °C; 24.0 h
in vitro = assay type: cell-based; details: human
Procedure: as §1

Procedure for DBA/1 IFN-γ RKO mice: The control group consisted of ten mice that were injected with collagen as discussed below.
The experiments were performed in 8- to 12-week old mice, but in each experiment, the mutant and wild-type mice were age-matched with a 5 day limit. The male to female ratio was kept between 0.8 and 1.3 in each experimental group.
Native chicken collagen type II (EPC, Owensvillle, Mo.) was dissolved in 0.05 M acetic acid at 2 mg/ml by stirring overnight at 6° C., and emulsified in an equal volume of incomplete (IFA) or complete Freund's adjuvant (CFA) containing 1.5 mg/ml heat killed Mycobacterium butyricum (Difco, Detroit, Mich.). Mice were sensitized with a single 100 μl intradermal injection of the emulsion at the base of the tail. Mice were examined daily for signs of arthritis. The disease severity was recorded following a scoring system for each limb. Score 0: normal; score 1: redness and/or swelling in one joint; score 2: redness and/or swelling in more than one joint; score 3: redness and/or welling in the entire paw; score 4: deformity and/or ankylosis.

Compound: c1ccc(N2CCN(Cc3ccc(CN4CCCNCCNCCCNCC4)cc3)CC2)cc1 [AMD3526, 1-[1,4,8,11-Tetraazacyclotetradecanyl-1,4-phenylenebis(methylene)]-4-phenylpiperazine]
IC50 against infection of U87.CD4.CCR5 by HIV-1 BaL (HIV-1 BaL): 82 µg/mL

Compound: c1ccc(CCNCc2ccc(CN3CCCNCCNCCCNCC3)cc2)nc1 [AMD3497, N-[1,4,8,11-Tetraazacyclotetradecanyl-1,4-phenylenebis(methylene)]-2-(amino-ethyl)pyridine]
CC50 (MT-4 cells): >250 µg/mL
EC50 HIV-1 (IIIB) (HIV-1 (HTLV-IIIB); 100 CCID50, 5 days, MTT): 1.8 µg/mL (≈ 4.24 µM)
EC50 HIV-2 (HIV-2 (LAV-2 ROD)): 3.8 µg/mL (≈ 8.95 µM)

Compound: SDF-1α
Inhibition of mAb 12G5 binding IC50 (CXCR-4 [1]): 0.27 µg/mL

Compound: CCOP(=O)(OCC)N1CCN(S(=O)(=O)c2ccccc2[N+](=O)[O-])CCCC(F)(F)CCCN(S(=O)(=O)c2ccccc2[N+](=O)[O-])CC1
ring closure, isolated yield ([3]; from bis-[2-(2-nitrobenzenesulfonylamino)-ethyl]-phosphoramidic acid diethyl ester + 1,7-bis(toluene-4-sulfonic acid)-4,4-difluoro-heptyl-ester, 15.4 mM, 85.0 °C): 19%

Compound: bis(3-nitrobenzenesulfonylaminopropyl)ether + Methanesulfonic acid, 5-methanesulfonyloxy-3-(4-{[( [...]
ring closure, isolated yield ([3]; the molecule shown is the open-chain precursor, 6.3 mM, 80.0 °C): 51%

Compound: CCOP(=O)(OCC)N1CCCCCCCNC(=O)CN(S(=O)(=O)c2ccccc2[N+](=O)[O-])CC1
ring closure, yield of all isomers [4]: 90%

Compound: bis(3-nitrobenzenesulfonylaminopropyl)ether? + N-(diethoxyphosphoryl)-O,O′-bis(2-methylsulfonyl)diethanolamine
ring closure, isolated yield ([3]; the molecule shown is the open-chain precursor, 18.0 mM, 80.0 °C): 55%

Compound: c1cc(CN2CCCNCCNCCCNCC2)ccc1CN1CCCNCCNCCCNCC1 [AMD3100]
animals demonstrating arthritis (DBA/1 IFN-γ RKO mice; 14 days after treatment, i.v. osmotic pump, 5 mg/ml over 14 days, control 7 of ten): 1 of the 8
body weight loss of treated animals compared with control animals (DBA/1 IFN-γ RKO mice; collagen-injected mice): did not demonstrate any significant body weight loss
time until the single treated animal developed arthritic pathology (DBA/1 IFN-γ RKO mice; post-treatment): > 20 days
IC50 (HIV-1 BaL; Human immunodeficiency virus 1, BAL, read-out: IC50 against infection of U87.CD4.CCR5 by HIV-1 BaL): > 100 µg/mL

Compound: c1ccc(CNCc2ccc(CN3CCCNCCNCCCNCC3)cc2)nc1 [AMD3465, N-[1,4,8,11-Tetraazacyclotetradecanyl-1,4-phenylenebis(methylene)]-2-(amino-methyl)pyridine]
CC50 at 5 days (in vitro): > 250 µg/mL
SI HIV-1 (Selectivity Index, ratio of CC50 to EC50) (HIV-1 (HTLV-IIIB); HIV-1 (IIIB)): 3 × 10^4
EC50 (HIV-1 (HTLV-IIIB); Human immunodeficiency virus 1, IIIB, MT4, 120 h, 100 CCID50, 5 days, MTT): 0.008 µg/mL (≈ 0.0195 µM)
IC50 (CXCR-4 [1]): 0.00731 µM
IC50 (CXCR-4 [2]): 0.00244 µM
EC50 (HIV-2 (LAV-2 ROD); Human immunodeficiency virus 2, MT4, 120 h): 0.032 µg/mL (≈ 0.0779 µM)

Compound: SCCNCc1ccc(CN2CCCNCCNCCCNCC2)cc1 [AMD3530, N-[1,4,8,11-Tetraazacyclotetradecanyl-1,4-phenylenebis(methylene)]-2-(amino-ethyl)mercaptan]
CC50 (MT-4 cells): 175 µg/mL (≈ 461 µM)
EC50 HIV-1 (IIIB) (HIV-1 (HTLV-IIIB); 100 CCID50, 5 days, MTT): 0.5 µg/mL (≈ 1.32 µM)
EC50 HIV-2 (HIV-2 (LAV-2 ROD)): 2.0 µg/mL (≈ 5.27 µM)

Compound: CCOP(=O)(OCC)N1CCN(S(=O)(=O)c2ccccc2[N+](=O)[O-])CCCC(F)CCCN(S(=O)(=O)c2ccccc2[N+](=O)[O-])CC1
ring closure, isolated yield ([3]; from bis-[2-(2-nitro-benzenesulfonylamino)-ethyl]-phosphoramidic acid diethyl ester + 1,7-bis(toluene-4-sulfonic acid)-4-fluoro-heptyl-ester, 15.9 mM, 85.0 °C): 55%

Compound: Clc1ccc(CN2CCCNCCNCCCNCC2)cn1 [AMD3454, 1-[2-Chloropyrid-5-yl(methylene)]-1,4,8,11-tetraazacyclotetradecane]
IC50 against infection of U87.CD4.CCR5 by HIV-1 BaL (HIV-1 BaL): 32.3 µg/mL

Further lines, with some results ahead:

EC50 HIV-1 (IIIB) (HIV-1 (HTLV-IIIB); 100 CCID50, 5 days, MTT): 0.8 µg/mL (≈ 1.88 µM)
EC50 HIV-2 (HIV-2 (LAV-2 ROD)): 10.6 µg/mL (≈ 25 µM)
Compound: Nc1ccccc1CNCc1ccc(CN2CCCNCCNCCCNCC2)cc1 [AMD3517, N-[1,4,8,11-Tetraazacyclotetradecanyl-1,4-phenylenebis(methylene)]-2-amino-benzylamine]
CC50 (MT-4 cells): 153 µg/mL (≈ 360 µM)

EC50 HIV-1 (IIIB) (HIV-1 (HTLV-IIIB); 100 CCID50, 5 days, MTT): 0.2 µg/mL (≈ 0.47 µM)
EC50 HIV-2 (HIV-2 (LAV-2 ROD)): 7.1 µg/mL (≈ 16.7 µM)
Compound: Cc1cnc(CNCc2ccc(CN3CCCNCCNCCCNCC3)cc2)cn1 [AMD3498, N-[1,4,8,11-Tetraazacyclotetradecanyl-1,4-phenylenebis(methylene)]-(2-amino-methyl-5-methyl)pyrazine]
CC50 (MT-4 cells): >250 µg/mL

IC50 (CXCR-4 [1]): > 2.25 µM
inhibition at 1 µg/mL (CXCR-4 [2]): 44%
Compound: c1ccc(CNCc2ccc(CN3CCNCCNCCc4cccc(c4)CC3)cc2)nc1 [AMD7058, N-[4-[4,7,10-Triazabicyclo[13.3.1]heptadeca-1(17),13,15-trienyl]-1,4-phenylenebis(methylene)]-2-(aminomethyl)pyridine]

EC50 HIV-1 (IIIB) (HIV-1 (HTLV-IIIB); 100 CCID50, 5 days, MTT): 0.7 µg/mL (≈ 1.65 µM)
EC50 HIV-2 (HIV-2 (LAV-2 ROD)): 3.7 µg/mL (≈ 8.71 µM)
Compound: Nc1ccc(CNCc2ccc(CN3CCCNCCNCCCNCC3)cc2)cc1 [AMD3544, N-[1,4,8,11-Tetraazacyclotetradecanyl-1,4-Ihenylenebis(methylene)]-4-amino-benzylamine]
CC50 (MT-4 cells): 222 µg/mL (≈ 523 µM)

IC50 against infection of U87.CD4.CCR5 by HIV-1 BaL (HIV-1 BaL): 45.4 µg/mL
Compound: c1ncc2ncn(Cc3ccc(CN4CCCNCCNCCCNCC4)cc3)c2n1 [AMD3472, N-[1,4,8,11-Tetraazacyclotetradecanyl-1,4-phenylenebis(methylene)]-purine]

IC50 against infection of U87.CD4.CCR5 by HIV-1 BaL (HIV-1 BaL): 8.9 µg/mL
Compound: Clc1cc(CN2CCCNCCNCCCNCC2)cc(Cl)n1 [AMD3451, 1-[2,6-Dichloropyrid-4-yl(methylene)]-1,4,8,11-tetraazacyclotetradecane]

IC50 (CXCR-4 [1]): 0.00225 µM
inhibition at 1 µg/mL (CXCR-4 [2]): 100%
Compound: c1ccc(CNCc2ccc(CN3CCNCCc4cccc(n4)CCNCC3)cc2)nc1 [AMD7050, N-[7-(4,7,10,17-Tetraazabicyclo[13.3.1]heptadeca-1(17),13,15-trienyl)-1,4-phenylenebis(methylene)]-2-(aminomethyl)pyridine]

IC50 (CXCR-4 [1]): > 2.44 µM
inhibition at 1 µg/mL (CXCR-4 [2]): 36%
Compound: c1ccc(CNCc2ccc(CN3CCCCCCCNCCNCC3)cc2)nc1 [AMD7059, N-[1-(1,4,7-Triazacyclotetra-decanyl)-1,4-phenylenebis(methylene)]-2-(aminomethyl)pyridine]

EC50 HIV-1 (IIIB) (HIV-1 (HTLV-IIIB); 100 CCID50, 5 days, MTT): 0.2 µg/mL (≈ 0.484 µM)
EC50 HIV-2 (HIV-2 (LAV-2 ROD)): 1.0 µg/mL (≈ 2.42 µM)
Compound: c1nc(CCNCc2ccc(CN3CCCNCCNCCCNCC3)cc2)c[nH]1 [AMD3543, N-[1,4,8,11-Tetraazacyclotetradecanyl-1,4-phenylenebis(methylene)]-4-(amino-ethyl)imidazole]
CC50 (MT-4 cells): 239 µg/mL (≈ 578 µM)

IC50 (CXCR-4 [1]): 0.127 µM
inhibition at 1 µg/mL (CXCR-4 [2]): 100%
Compound: c1ccc(CNCc2ccc(CN3CCNCCCCCCCNCC3)cc2)nc1 [AMD7049, N-[4-(1,4,7-Triazacyclotetra-decanyl)-1,4-phenylenebis(methylene)]-2-(aminomethyl)pyridine]

EC50 HIV-1 (IIIB) (HIV-1 (HTLV-IIIB); 100 CCID50, 5 days, MTT): 0.1 µg/mL (≈ 0.235 µM)
EC50 HIV-2 (HIV-2 (LAV-2 ROD)): 6.7 µg/mL (≈ 15.8 µM)
Compound: CN(Cc1ccc(CN2CCCNCCNCCCNCC2)cc1)Cc1ccccn1 [AMD3538, N-[1,4,8,11-Tetraazacyclotetradecanyl-1,4-phenylenebis(methylene)]-N-methyl-2-(aminomethyl)pyridine]
CC50 (MT-4 cells): 209 µg/mL (≈ 492 µM)

IC50 (CXCR-4 [1]): 0.0158 µM
inhibition at 1 µg/mL (CXCR-4 [2]): 100%
Compound: c1ccc(CNCc2ccc(CN3CCNCCc4cccc(c4)CCNCC3)cc2)nc1 [AMD7051, N-[7-(4,7,10-Triazabicyclo[13.3.1]heptadeca-1(17),13,15-trienyl)-1,4-phenylenebis(methylene)]-2-(aminomethyl)pyridine]

IC50 (CXCR-4 [1]): 0.0202 µM
inhibition at 1 µg/mL (CXCR-4 [2]): 100%
Compound: c1ccc(CNCc2ccc(CN3CCNCCNCCc4cccc(n4)CC3)cc2)nc1 [AMD7063, N-[4-[4,7,10,17-Tetraazabicyclo[13.3.1]heptadeca-1(17),13,15-trienyl]-1,4-phenylenebis(methylene)]-2-(aminomethyl)pyridine]

EC50 HIV-1 (IIIB) (HIV-1 (HTLV-IIIB); 100 CCID50, 5 days, MTT): 0.4 µg/mL (≈ 0.977 µM)
EC50 HIV-2 (HIV-2 (LAV-2 ROD)): 2.6 µg/mL (≈ 6.35 µM)
Compound: c1ccc(CNCc2ccc(CN3CCCNCCNCCCNCC3)cc2)cc1 [AMD3529, N-[1,4,8,11-Tetraazacyclotetradecanyl-1,4-phenylenebis(methylene)]-benzylamine]
CC50 (MT-4 cells): 130 µg/mL (≈ 317 µM)

EC50 HIV-1 (IIIB) (HIV-1 (HTLV-IIIB); 100 CCID50, 5 days, MTT): 0.6 µg/mL (≈ 1.46 µM)
EC50 HIV-2 (HIV-2 (LAV-2 ROD)): 10.3 µg/mL (≈ 25.1 µM)
Compound: c1cc(CNCc2ccc(CN3CCCNCCNCCCNCC3)cc2)ccn1 [AMD3500]
CC50 (MT-4 cells): >250 µg/mL

EC50 HIV-1 (IIIB) (HIV-1 (HTLV-IIIB); 100 CCID50, 5 days, MTT): 0.7 µg/mL (≈ 1.68 µM)
EC50 HIV-2 (HIV-2 (LAV-2 ROD)): 9.8 µg/mL (≈ 23.6 µM)
Compound: c1csc(CNCc2ccc(CN3CCCNCCNCCCNCC3)cc2)c1 [AMD3516, N-[1,4,8,11-Tetraazacyclotetradecanyl-1,4-phenylenebis(methylene)]-2-(amino-methyl)thiophene]
CC50 (MT-4 cells): 158 µg/mL (≈ 380 µM)
